{
  "source": "patent US12269800B2",
  "about": "“Delivery of therapeutic alkaloid compounds” (priority 2021, dated 2025)",
  "key": {"[1]": {"details": "in vivo; cited from earlier work"}, "[2]": {"assay_type": "physicochemical", "details": "for Notes (stability in words): 0.5 mM, 0-24 h", "protocol": "The hydrolysis kinetics was under a certain temperature and measured by LCMS at a certain time interval. The corresponding LCMS chromatograms were recorded and the conversions were calculated. The hydrolysis conditions and the data were summarized in below table. LCMS spectra were obtained using Agilent 1200G1956A or SHIMADZU LCMS-2020. Standard LCMS conditions were as follows (running time 1.55 minutes):\nAcidic condition: Mobile Phase A: 0.0375% TFA in water (v/v). Mobile Phase B: 0.01875% TFA in acetonitrile (v/v); Column: Kinetex EVO C18 30*2.1 mm, 5 μm.\nBasic condition: Mobile Phase A: 0.025% NH3—H2O in water (v/v). Mobile Phase B: Acetonitrile; Column: Kinetex EVO C18 2.1×30 mm, 5 μm.\nConversion (%)=peak area 1/(peak area 1+peak area 2)*100%, peak area 1 is the integration of hydrolyzed product, peak area 2 is the integration of starting material."}, "SERT": {"target": "T1, SERT (Homo sapiens, UniProt P31645)", "T1 construct": "expressed in transfected cells", "T1 sequence (P31645 whole entry, species assumed)": "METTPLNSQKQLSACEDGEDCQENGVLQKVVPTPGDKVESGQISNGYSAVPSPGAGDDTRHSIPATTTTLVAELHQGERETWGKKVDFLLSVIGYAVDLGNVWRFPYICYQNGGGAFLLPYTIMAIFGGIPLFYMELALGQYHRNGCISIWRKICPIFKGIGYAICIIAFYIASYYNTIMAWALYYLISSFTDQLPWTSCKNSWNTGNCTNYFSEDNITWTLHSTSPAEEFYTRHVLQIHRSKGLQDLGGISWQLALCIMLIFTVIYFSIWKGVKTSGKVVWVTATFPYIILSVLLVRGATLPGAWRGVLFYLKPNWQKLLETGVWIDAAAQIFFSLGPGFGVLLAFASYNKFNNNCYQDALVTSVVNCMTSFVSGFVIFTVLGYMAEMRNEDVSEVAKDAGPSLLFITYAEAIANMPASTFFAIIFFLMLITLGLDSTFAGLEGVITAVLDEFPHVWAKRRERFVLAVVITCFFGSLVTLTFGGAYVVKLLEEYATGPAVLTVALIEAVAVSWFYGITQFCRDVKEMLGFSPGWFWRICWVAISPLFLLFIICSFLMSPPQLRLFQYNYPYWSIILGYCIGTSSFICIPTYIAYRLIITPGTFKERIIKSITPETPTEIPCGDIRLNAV", "test": "cell-based", "details": "stable 5HTT cells, 30 minutes at 37° C."}, "[3]": {"test": "Hydrolysis Assay of Example A2, Condition 1 (SGF with pepsin, pH 1.5, 37° C.)", "assay_type": "physicochemical", "details": "SGF with pepsin pH 1.5, 37° C., 0.5 mM"}, "[4]": {"assay_type": "physicochemical", "details": "DI water, 25° C., 0.5 mM"}, "[5]": {"details": "2 mg/kg iv in rat", "protocol": "Brain samples were homogenized with PBS (W/V, 1:3). Plasma/brain samples were mixed with acetonitrile containing internal standard. The samples were vortexed then centrifuged at 4 degrees Celsius for 15 minutes. The supernatant was diluted with water (1:2 V/V) and analyzed by LC/MS/MS for quantitative analysis. […] Area under the curve (AUC) was calculated and divided by dose to account for molecular weight difference of prodrug and metabolite (AUC/D)."}, "[6]": {"test": "Plasma Stability Assay of Example A3, human plasma", "details": "% of prodrug compound remaining, 37° C., 0.0 min"}, "[7]": {"test": "Oral dose pharmacokinetic study in mice (10 mg/kg)", "protocol": "Total thirty-five male mice were used for each study with n=5 mice/time point. Animals were administered through oral route with solution formulation at 10 mg/kg dose. The formulation vehicle used was normal saline. […] Brain samples were collected from set of five mice at 0.083, 0.25, 0.50, 1.0, 1.5, 2.0 and 3.0 h.\nThe plasma and brain concentration-time data of 001 was used for the pharmacokinetic analysis."}, "[8]": {"protocol": "General Procedure for intravenous pharmacokinetic study in mice: Male C57/BL6 mice were used to evaluate each compound, with n=3 mice/time point. Animals were administered through intravenous route with solution formulation at 2 mg/kg dose. […] Following blood collection, immediately, animals were sacrificed, and vena-cava was cut open and blood was drained. […] Brain samples were collected from set of three mice at each time point. […] Brain samples were homogenized using 2 volumes of ice-cold PBS (pH-7.4) of brain weight. […] Concentrations of compound (or compound and metabolite) in mouse plasma and brain samples were determined by fit for purpose LC-MS/MS method.", "remark": "listed apart in the source"}, "[9]": {"test": "Plasma Stability Assay of Example A3, mouse plasma", "details": "% of prodrug compound remaining, 37° C., 0.0 min"}, "[10]": {"test": "Pharmacokinetics of 043 and 001 in mice after oral 043 (75 mg/kg)", "assay_type": "in vivo, male C57BL/6 mice", "details": "analyte as labelled, single oral administration of 043, 75 mg/kg", "protocol": "Total twelve male mice were used in this study. […] The formulation vehicle used was normal saline.\nThe plasma and brain concentration-time data of 043 and 001 was used for the pharmacokinetic analysis.\nThe extraction procedure for plasma/brain samples and the spiked plasma/brain calibration standards were identical:\nA 25 μL of study sample plasma/brain (dilution applied to some samples) or spiked plasma calibration standard was added to individual pre-labeled micro-centrifuge tubes followed by 100 μL of internal standard prepared in acetonitrile (Glipizide-500 ng/mL) was added except for blank, where 100 μL of acetonitrile was added. Samples were vortexed for 5 minutes. Samples were centrifuged for 10 minutes at a speed of 4000 rpm at 4° C. Following centrifugation, 100 μL of clear supernatant was transferred in 96 well plates and analyzed using LC-MS/MS."}, "[11]": {"details": "fermentation, exposure to light, exposure to heat, aqueous medium; cited from earlier work"}, "[12]": {"details": "10 mg/kg po of the labelled compound in mice"}},
  "note": "Like-named read-outs stand apart in the source and are kept apart here.",
  "data": [
    {"smiles": "COc1ccc([C@@]23CCC(=O)C[C@@H]2N(C)CC3)cc1OC", "note": "[(−) mesembrine]", "values": [
      {"measurement": "half-life in plasma", "setting": "[1]", "result": "less than 2 hours"}
    ]},
    {"smiles": "COc1ccc([C@@]23CCC(=NO)C[C@@H]2N(C)CC3)cc1OC", "note": "(mixture of isomers) [Compound 037]", "values": [
      {"measurement": "conversion to mesembrine", "setting": "[2]; acidic pH 2.0, 25 or 37° C.", "result": "converted to mesembrine"},
      {"measurement": "IC50", "setting": "SERT", "result": "< 50", "unit": "nM"}
    ]},
    {"smiles": "CCC(C)CC(=O)OC1=C[C@@H]2N(C)CC[C@]2(c2ccc(OC)c(OC)c2)CC1", "note": "(stereo partly drawn) [Compound 316, [(3aS,7aS)-3a-(3,4-dimethoxyphenyl)-1-methyl-3,4,5,7a-tetrahydro-2H-indol-6-yl]3-methyl pentanoate]", "values": [
      {"measurement": "Condition 1 Conversion (%)", "setting": "[3]; time 1 min", "result": 0, "unit": "%"},
      {"measurement": "Condition 1 Conversion (%)", "setting": "[3]; time 5 min", "result": 0, "unit": "%"},
      {"measurement": "Condition 1 Conversion (%)", "setting": "[3]; time 30 min", "result": 0, "unit": "%"},
      {"measurement": "Condition 1 Conversion (%)", "setting": "[3]; time 1 h", "result": 0, "unit": "%"},
      {"measurement": "Condition 1 Conversion (%)", "setting": "[3]; time 4 h", "result": 0, "unit": "%"},
      {"measurement": "Condition 1 Conversion (%)", "setting": "[3]; time 24 h", "result": 0, "unit": "%"},
      {"measurement": "Condition 2 Conversion (%)", "setting": "[4]; time 1 min", "result": 0, "unit": "%"},
      {"measurement": "Condition 2 Conversion (%)", "setting": "[4]; time 5 min", "result": 0, "unit": "%"},
      {"measurement": "Condition 2 Conversion (%)", "setting": "[4]; time 30 min", "result": 0, "unit": "%"},
      {"measurement": "Condition 2 Conversion (%)", "setting": "[4]; time 1 h", "result": 0, "unit": "%"},
      {"measurement": "Condition 2 Conversion (%)", "setting": "[4]; time 4 h", "result": 0, "unit": "%"},
      {"measurement": "Condition 2 Conversion (%)", "setting": "[4]; time 24 h", "result": 0, "unit": "%"},
      {"measurement": "conversion to 001 in vivo", "setting": "[5]", "result": "converts to 001 in vivo"}
    ]},
    {"smiles": "COc1ccc([C@@]23CCC(=O)C[C@@H]2N(C)CC3)cc1OC", "note": "[Compound 001, mesembrine, reference compound]", "values": [
      {"measurement": "Human Plasma Prodrug (%)", "result": ">99", "unit": "%"},
      {"measurement": "Human Plasma Prodrug (%)", "setting": "[6]", "result": 100.0, "unit": "%"},
      {"measurement": "001 quantifiable in brain up to", "setting": "[7]; [12]", "result": 60, "unit": "min"},
      {"measurement": "001 quantifiable in plasma up to", "setting": "[7]; [12]", "result": 2, "unit": "h"},
      {"measurement": "brain levels of 001", "setting": "[7]; at 90, 120, 180 min, 10 mg/kg po in mice", "result": "not detectable"},
      {"measurement": "plasma levels of 001", "setting": "[7]; at 180 min, 10 mg/kg po in mice", "result": "not detectable"},
      {"measurement": "bioavailability", "setting": "[7]; male, C57BL/6, mouse, plasma, po, 10 mg/kg", "result": "< 10", "unit": "%"},
      {"measurement": "Notes (stability in words)", "setting": "[2]; PH = 7.4, 25° C., PBS (20 mM)", "result": "Stable"},
      {"measurement": "Notes (stability in words)", "setting": "[2]; PH = 7.4, 40° C., PBS (20 mM)", "result": "Stable"},
      {"measurement": "hydrolysis", "setting": "[2]; pH 2.0 in 0.01 M HCl to pH 7.4 in 20 mM PBS, 25° C. to 40° C.", "result": "did not further hydrolyze"},
      {"measurement": "Notes (stability in words)", "setting": "[2]; pH = 2.0, 25° C., 0.01M HCl", "result": "Stable"},
      {"measurement": "Notes (stability in words)", "setting": "[2]; pH = 2.0, 40° C., 0.01M HCl", "result": "Stable"},
      {"measurement": "001 quantifiable in brain up to", "setting": "[8]; 2 mg/kg iv of the labelled compound in mice", "result": 60, "unit": "min"},
      {"measurement": "plasma levels of 001", "setting": "[8]; at 60, 120, 180 min, 2 mg/kg iv in mice", "result": "not detectable"},
      {"measurement": "brain levels of 001", "setting": "[8]; at 120, 180 min, 2 mg/kg iv in mice", "result": "not detectable"},
      {"measurement": "Mouse Plasma Prodrug (%)", "setting": "[9]", "result": 100.0, "unit": "%"},
      {"measurement": "brain concentrations quantifiable up to", "setting": "[10]", "result": 4, "unit": "h"},
      {"measurement": "Kp", "setting": "[10]; male, C57BL/6, mouse, brain, read-out: brain exposure-Kp", "result": 2.55},
      {"measurement": "Tmax", "setting": "[10]; male, C57BL/6, mouse, plasma, read-out: Tmax", "result": 30, "unit": "min"}
    ]},
    {"smiles": "COc1ccc([C@@]23CCC(=O)C[C@@H]2N(C)CC3)cc1OC", "note": "[mesembrine]", "values": [
      {"measurement": "stability", "setting": "[11]", "result": "unstable"}
    ]}
  ]
}
